Measured values from patent publication US10253300B2, “Adapted rhinovirus C” (Wisconsin Alumni Research Foundation, priority 2015, dated 2019).
“Also recorded” adds a separate entry of the source.

What was measured:
C15a [1] = assay: Inhibition of virus binding and replication by preincubation with heparin, HS or glycans: C15a; assay type: cell-based, rhinovirus C; settings: for inhibition of virus binding to HeLa-E8 cells: heparin or HS 1-2 mg/ml preincubation
Method: (§1) FIGS. 4A-4E—Heparin and heparan sulfate effects. (A) Virus samples (5×10^5 PFUe) were incubated with heparin (2 mg/ml) or medium alone (no heparin) for 30 min at 34° C., before inoculation of HeLa-E8 cells. After an attachment period (30 min at room temp, 30 min at 34° C.) the cells were washed (3×PBS), harvested and tested by RT-qPCR for the attached virus RNA signals (means±s.d., n≥3). (*) indicates p<0.05 significance (t-test). (B) C15a and C15 K125 (5×10^5 PFUe) were incubated with heparin or heparan sulfate (1 mg/ml) as in A, before HeLa-E8 infections and virus binding assays. (C) The C15a experiment in A was repeated using different doses of heparin in the preincubation. (D) HeLa-E8 cells (12 well-plates) were treated (37° C., 2 h) with the indicated dose (U) of heparinase I before inoculation with C15a virus (5×10^5 PFUe) and tested for virus binding as in A. (E) C15a and recombinant C15 K125/K41 viruses (5×10^5 PFUe) were incubated with heparin (1 mg/ml, 30 min, 34° C.) before inoculation of HeLa-E8 or HeLa-H1 cells. After an attachment period (30 min at room temp, 30 min at 34° C.), the cells were washed with PBS (3×). Cells were harvested and assayed for the attached virus (1 h p.i.) and progeny virus (24 h p.i.) RNA signals by RT-qPCR (means±s.d., n=3).
FIGS. 9A-9B—Glycan effects on virus binding assays. (A) Recombinant C15 or (B) polyclonal C15a were incubated in media with the indicated sialylated glycans (1 mg/ml, see below) before being tested for binding to HeLa-E8 cells. Virus (5×10^5 PFUe) and glycan were mixed (30 min, 34° C.), then added to plated cells (30 min, room temp), before the samples were again incubated at 34° C. for an additional 30 min. The cells were washed (3×) before total RNA was extracted and assayed for C15 titer by RT-qPCR. For SNA and MALII samples, the cells, rather than virus were pretreated (100 μg/ml for 30 min, room temp) before the virus addition step. The plotted values are the averages of duplicate samples (n=2). Glycan reagents include: SLN 2-3 (3′-Sialy-N-acetyllactosamine, V-Labs, Inc), 1 mg/ml; SLN 2-6 (6′-Sialy-N-acetyllactosamine, V-Labs, Inc), 1 mg/ml; SLN 2-8 (Neu5Ac2-8Neu5Ac2-8Neu5Ac-sp-biotin, GlycoTech), 1 mg/ml; GlcNac 1-4 (GlcNAcb1-4GlcNAcb-sp-biotin, GlycoTech), 1 mg/ml; SNA (Sambucus Nigra Lectin, Vector Laboratories), 100 μg/ml; MAUI (Maackia Amurensis Lectin, Vector Laboratories), 100 μg/ml.
(§2) Purified virus (5×10^5 PFUe) was pre-incubated with tested compounds (sialic acid and sugar di- or trisaccharides, heparin or HS) for 30 min at 34° C. before inoculation of HeLa cell monolayers (30 min, room temp; 30 min, 34° C.). Cells were washed three times with PBS, lysed with the RLT buffer (Qiagen) and stored at −80° C. before total RNA extraction and RT-qPCR for C15. For SNA and MAUI samples, the cells, rather than virus were pretreated (100 μg/ml for 30 min, room temp) before the virus addition step. HeLa-E8 cells were washed with PBS containing 1 mM MgCl2 and 1 mM CaCl2 (PBS^++) and incubated for 2 hours at 37° C. with 2.5-10 U of heparinase I in PBS^++ before inoculation with purified virus (10^6 PFUe) for 1 hour at 34° C.

C15 K125 = assay: Inhibition of virus binding by preincubation with heparin or HS: C15 K125; assay type: cell-based, rhinovirus C; settings: for inhibition of virus binding to HeLa-E8 cells: heparin or HS 1-2 mg/ml preincubation
Method: as §1, §2

Ala viruses = assay: Inhibition of virus binding by preincubation with heparin: Ala; assay type: cell-based; settings: heparin 2 mg/ml preincubation
Method: as §1, with “n=3). […]” for “n=3).”

recombinant C15 K125/K41 = assay: Inhibition of virus binding and replication by preincubation with heparin: recombinant C15 K125/K41; assay type: cell-based, rhinovirus C; settings: heparin 1 mg/ml
Method: as §1, with “n=3). […]” for “n=3).”

unadapted C15 virus = assay: Inhibition of virus binding by preincubation with heparin: unadapted C15; assay type: cell-based, rhinovirus C; settings: heparin 2 mg/ml preincubation
Method: as §1, with “n=3). […]” for “n=3).”

A16 = assay: Inhibition of virus binding by preincubation with heparin: A16; assay type: cell-based, RV-A; settings: heparin 2 mg/ml preincubation
Method: as §1, with “n=3). […]” for “n=3).”

RV-C15-K125 = assay: Heparinase I treatment, virus binding to HeLa-E8: RV-C15-K125; assay type: cell-based, rhinovirus C
Method: as §2
Receptor specificity switch has been documented for some major receptor group RVs (e.g. RV-A89) that were adapted for growth in ICAM-1-deficient cells by serial or alternate passages in HEp-2 and HeLa cells (Reischl et al., 2001; Vlasak et al., 2005). A HEp-2-adapted RV-A89 variant can utilize HS proteoglycans as a cellular receptor (Vlasak et al., 2005). […] In contrast to RV-A89, RV-C15 adaptation by passaging in HeLa cells occurred in the absence of selective pressure for binding specificity change. This process has also been observed in some other picornaviruses and alphaviruses (Sa-Carvalho et al., 1997; Klimstra et al., 1998; Smit et al., 2002). […]

C15a [2] = assay: Heparinase I pretreatment of HeLa-E8 cells, virus binding: C15a; assay type: cell-based, rhinovirus C
Method: as §1, with “n=3). […]” for “n=3).”

[3] = heparin 2 mg/ml, 30 min 34° C. preincubation, 5×10^5 PFUe, HeLa-E8

Substance: heparan sulfate [HS]
- inhibition of virus binding to HeLa-E8 cells (C15a [1]): had this effect; also recorded: inhibited
- inhibition of virus binding to HeLa-E8 cells (C15 K125): had this effect; also recorded: inhibited

Substance: heparin
- effect of heparin on virus interaction with HeLa-E8 cells (Ala viruses): not affected
- dose dependence of inhibition of binding (C15a [1]; different doses of heparin in the preincubation, HeLa-E8): dependent upon the dose
- effect of heparin on binding and replication in HeLa-H1 cells (C15a [1]; heparin 1 mg/ml, 1 h and 24 h p.i.): abolished
- replication in HeLa-E8 cells despite the heparin treatment (C15a [1]; heparin 1 mg/ml, 24 h p.i.): still replicated (to a degree)
- reduction of binding titer by heparin (C15a [1]; [3]): 17 fold
- inhibition of virus binding to HeLa-E8 cells (C15a [1]): inhibited
- effect of heparin on binding and replication in HeLa-H1 cells (recombinant C15 K125/K41; 1 h and 24 h p.i.): abolished
- replication in HeLa-E8 cells despite the heparin treatment (recombinant C15 K125/K41; 24 h p.i.): still replicated (to a degree)
- reduction of binding titer by heparin (C15 K125; [3]): 44 fold
- inhibition of virus binding to HeLa-E8 cells (C15 K125): inhibited
- effect of heparin on virus interaction with HeLa-E8 cells (unadapted C15 virus): not affected
- effect of heparin on virus interaction with HeLa-E8 cells (A16): not affected

Substance: heparinase I
- inhibition of virus binding to HeLa-E8 cells (RV-C15-K125): inhibited
- reduction of C15a binding after heparinase I pretreatment of HeLa-E8 cells (C15a [2]; 2.5-10 U heparinase I, 37° C., 2 h): more than 7 fold
- inhibition of virus binding to HeLa-E8 cells (C15a [2]; heparinase I treatment): inhibited
